# Measured values from a melting point compilation (Tetko et al.; mined from patent text by program, amines drawn as free bases though some values may be those of a salt).
row,SMILES,melting point [°C]
1,Nc1nc(N)c2c(ccc3c2c2c(n3Cc3ccccc3)CCCC2)n1,224 to 226
2,CC(CO)(Sc1cc2cc(O)ccc2[nH]1)c1ccccc1 (stereo not given),143 to 145
3,C=CCNc1nc(Cl)nc2c1ncn2CC=C,110 to 112
4,Nc1ccc(Cl)cc1C(=O)c1cccc(Cl)c1,118 to 119
5,Cc1c(C)c(N2Cc3ccccc3C2)c(C)c2c1OC(C)(C)C2c1ccc(C(C)C)cc1 (stereo not given),113 to 114
6,Clc1ccccc1-c1nc2occn2c1-c1ccnc(N[C@H]2CN3CCC2CC3)n1,132 to 134
7,CCOC(=O)C1=Cc2cccc(NS(=O)(=O)N(C)C)c2OCC1,93 to 96
8,COc1cccc2c(=O)n3nc(C(N)=O)cc3[nH]c12,265 to 270
9,CN1C(C)(C)CC(NC(=O)c2ccc(-c3cc4cc(Cl)c(Cl)cc4[nH]3)cc2)CC1(C)C,325
10,Fc1cccc(COc2ccc(Nc3ncnc4sc(C#Cc5ccccn5)cc34)cc2Cl)c1,180
11,C[Si](C)(C)c1cccc2c1S(=O)c1c(cccc1[Si](C)(C)C)S2,210 to 211
12,CC1=CC(O)C(OC(=O)c2ccccc2)C(C)(C)CC1OC(=O)c1ccccc1 (stereo not given),142 to 144
13,O=S(=O)(c1ccc(F)cc1)N1CCCC1c1ccco1 (racemic),69
14,CNC(=O)Nc1scc(C(C)(C)C)c1C#N,212 to 214
15,COc1ccc(C(=O)N(C)C2N(C)C(c3ccc(F)cc3)=NC2(C(F)(F)F)C(F)(F)F)cc1 (stereo not given),136 to 137
16,CC(=O)N(CCN1CCC(Nc2nc3ccccc3n2Cc2ccc(F)cc2)CC1)c1nccs1,186 to 193
17,C#CCOC(=O)C=C(C)C=CC=C(C)C=Cc1c(C)cc(OC)c(C)c1C,94 to 95
18,CC(=O)N[C@H]1CC[C@H](c2ccc([N+](=O)[O-])cc2)CC1,221 to 224
19,Clc1ccc(CCC(Cn2ccnc2)SCc2ccco2)cc1 (stereo not given),97 to 98
20,CC(=O)OCC1OC(F)C(N2C(=O)c3ccccc3C2=O)C(OC(C)=O)C1OC(C)=O (stereo not given),116
21,Cc1c2c(nc3ccccc13)CCN(C(=O)C(C)C)CC2,107
22,CCOc1c(C(N)=O)oc2c3ccccc3n(-c3ccccc3)c12,187 to 188
23,CN1CCC(N(CCO)S(=O)(=O)c2ccc(Nc3nccc(Nc4ccc(F)cc4)n3)cc2)CC1,125 to 135
24,Oc1ccc2c(c1)COc1c-2cc2ccc(O)cc2c1-c1cccs1,233 to 236
25,CNC(=O)c1ccnc(N2CCN(Cc3ccc(F)cc3)C2=O)c1,118 to 120
26,CC1CN(C)CCC1Oc1cccc(NC(=O)c2ccc(F)cc2Cl)n1 (stereo not given),155 to 160
27,O=C(CCCN1CCCCC1)c1ccc2sc3ccc(C(=O)CCCN4CCCCC4)cc3c2c1,93 to 95
28,O=C(NNC(=O)c1ccnc2[nH]ccc12)OCc1ccccc1,203 to 204
29,CCCSc1c[nH]nc1C1=CCCN(C)C1,111

# The next lines start with the values.
row,melting point [°C],SMILES
1,178 to 180,Cc1ccc(C#CC2CCC3C4CCC5CC(O)CCC5(C)C4CCC23C)cc1 (stereo not given)
2,86 to 88,CCC1(C)C(=O)NN=C1c1ccc(-n2ccnc2)cc1 (stereo not given)
3,180,COC(=O)c1cccc(-c2c(C)cc(OC3CCS(=O)(=O)CC3)cc2C)c1
4,205,CCCNC(=O)Nc1ccc(C(=O)c2ncc3ccccn23)cc1C(=O)OC
5,232 to 234,Nc1n[nH]c2ncnc(Nc3cccc(Cl)c3)c12
6,222 to 224,COc1cc2nc3ccc(SC)cc3sc-2cc1=O
7,205,CC1Cn2c(=O)[nH]c3cccc(c32)CN1Cc1ccccc1 (stereo not given)
8,290,O=C(c1cc(O)c(O)cc1[N+](=O)[O-])N1CCC(N2CCCCC2)CC1
9,217 to 219,C=Cc1c(C)c2cc3nc(c4c5[nH]c(cc6nc(cc1[nH]2)C(C)=C6CC)c(C)c5C(=O)C4)C(CCC(=O)OC)C3C (stereo not given)
10,155,CCCCc1nc(C(=O)O)c(S(=O)(=O)c2ccccc2)n1Cc1ccc(-c2ccccc2C(=O)O)cc1
11,73 to 74,CN(CCOc1ccc(N)cc1)CCc1ccc(N)cc1
12,101 to 102,Cc1ccc(-c2nc(Cc3cccc(CBr)c3)c(C)o2)cc1
13,102,O=C1CC2(CC2)CC(=O)O1
14,133,CC1Cc2c(-c3ccccc3)[nH]c(-c3ccccc3)c2CC1C (stereo not given)
15,> 340,O=c1[nH]c2ccsc2[nH]c1=O
16,274 to 276,C[C@@H]1c2ccccc2-c2ccc(Cl)cc2N1C(=O)c1ccc(O)cc1
17,285 to 288,O=C1CSC(=S)N1N=c1sc2ccc(C(F)(F)F)cc2s1
18,157 to 158,CC(=O)Nc1cccc(-c2cncnc2)c1
19,195 to 198,CCOC(=O)c1cn(C2COC2)c2c(OC)c(F)c(F)cc2c1=O
20,25 to 27,CC1=NCCn2cccc21
21,182 to 183,COc1ccc(C2Sc3c(ccc4ccccc34)N(CCN(C)C)C(=O)C2OC(=O)c2ccc(OC)c(OC)c2)cc1 (stereo not given)

row,melting point [°C],SMILES
1,53 to 54,CCOC(=O)c1cc(OCC)c(OCC)cc1[N+](=O)[O-]
2,86 to 89,CC[C@@H](C)[C@H](NC(=O)NCCNC(=O)OC(C)(C)C)C(=O)OC
3,144 to 149,O=P(O)(O)c1cccc(Br)c1
4,114 to 115,CC(=O)Oc1ccc(S(=O)(=O)ON=C(C#N)c2cccs2)cc1
5,128 to 129,O=C(O)[C@H](Cc1ccc(C(F)(F)F)cc1)[C@@H](O)c1ccc(Oc2ccccc2)cc1 (racemic)
6,202,CCc1nc2c(N)nc3ccccc3c2n1CCCCNC(=O)C1CCCCC1
7,145 to 148,O=C1NCC(CO)C1(c1ccccc1)c1ccccc1 (stereo not given)
8,183,CN(C)c1ccc(C(=O)NC2CCN(C(c3ccccc3)c3ccccc3)CC2)c([N+](=O)[O-])c1
9,125 to 127,Cc1cc(C)c(Cc2ccc(=O)[nH]n2)c(C)c1
10,138 to 141,COc1cn(-c2cccc(C3=CCOCC3)c2F)nc(-c2ccnn2-c2ccccc2)c1=O
11,112,CNC(=O)c1ccc(F)c2c1CC(N(CCCCc1c[nH]c3ccc(F)cc13)CC1CC1)CO2 (stereo not given)
12,282 to 284,CCOc1cc2ncc(C#N)c(Nc3ccc4c(C)cc(=O)oc4c3)c2cc1OCC
13,47 to 57,CC(C)c1cc(CCC(=O)OCC(C)(C)C2OCC3(CO2)COC(C(C)(C)COC(=O)CCc2cc(C(C)C)c(O)c(C(C)(C)C)c2)OC3)cc(C(C)(C)C)c1O (stereo not given)
14,210 to 211,CCCCOc1nc(N)c2[nH]c(=O)n(CCCCNS(=O)(=O)c3ccc(CCC(=O)O)cc3)c2n1
15,134 to 136,O=C(CCCN1CCN(c2cccc(Cl)c2Cl)CC1)N1CCc2ccccc21
16,123 to 124,CCOC(=O)c1ccc2sc(C=Cc3cccnc3)c(C)c2c1
17,66 to 67,COC(=O)CCCCCCNC(=O)c1cn2c3c(cccc13)CCC2
18,216 to 218,O=C(c1ccccn1)c1cnn2c(-c3cccnc3)ccnc12
19,166,CCOC(=O)C=Cc1ccc(C(=O)Nc2ccc3c(c2)C(C)(C)CCC3(C)C)cc1
20,138 to 142,CCN(CC)CCOc1ccc(-c2sc3ccccc3c2C(=O)c2cc(C)cc(C)c2)cc1
